Source: ChEMBL document CHEMBL4765339, “Design, synthesis, and biological evaluation of 4-substituted-3,4-dihydrobenzo[h]quinoline-2,5,6(1H)-triones as NQO1-directed antitumor agents” (Eur J Med Chem, 2020)

System: not listed separately
Test: Selectivity index, ratio of GI50 for human A549 cells pretreated for 1 hr with NQO1 inhibitor, dicoumarol followed by incubation with compound for 48 hrs to GI50 for human A549 cells measured after 48 hrs by MTT assay
Type: functional
Settings: not given
In the case of `CC1(C)CCC2=C(O1)c1ccccc1C(=O)C2=O` [LAPACHONE], the RatioGI50 was 2.

Target: NAD(P)H dehydrogenase [quinone] 1 (Homo sapiens) (UniProt P15559)
Test: Substrate activity at recombinant human C-terminal His-tagged NQO1 (1 to 274 residues) expressed in Escherichia coli assessed as enzyme activity by measuring oxidation of NADPH incubated for 5 mins measured per micromol of enzyme every 5 sec for 1 mins by UV-visible spectrophotometry
Settings: not given
`O=C1CC(c2cccc(O)c2)C2=C(N1)c1ccccc1C(=O)C2=O` (stereo not drawn) showed an Activity of 509 µmol/min.
In the case of `CC(C)C1CC(=O)NC2=C1C(=O)C(=O)c1ccccc12` (stereo not drawn), the Activity was 786 µmol/min.
With `O=C1CC(c2ccc([N+](=O)[O-])cc2)C2=C(N1)c1ccccc1C(=O)C2=O` (stereo not drawn) the Activity was 182 µmol/min.
Molecule `O=C1CC(C2CCCCC2)C2=C(N1)c1ccccc1C(=O)C2=O` (stereo not drawn) has an Activity of 283 µmol/min.
`COc1cc(C2CC(=O)NC3=C2C(=O)C(=O)c2ccccc23)cc(OC)c1OC` (stereo not drawn) gave an Activity of 684 µmol/min.
With `O=C1CC(c2ccco2)C2=C(N1)c1ccccc1C(=O)C2=O` (stereo not drawn) the Activity was 613 µmol/min.
Work on `O=C1CC(c2cc([N+](=O)[O-])ccc2Cl)C2=C(N1)c1ccccc1C(=O)C2=O` (stereo not drawn) yielded an Activity of 195 µmol/min.
In the case of `O=C1CC(c2ccc(Cl)cc2)C2=C(N1)c1ccccc1C(=O)C2=O` (stereo not drawn), the Activity was 557 µmol/min.
Work on `CCCCCC1CC(=O)NC2=C1C(=O)C(=O)c1ccccc12` (stereo not drawn) yielded an Activity of 175 µmol/min.
`O=C1CC(c2c(F)cccc2F)C2=C(N1)c1ccccc1C(=O)C2=O` (stereo not drawn) gave an Activity of 160 µmol/min.
`COc1cccc(C2CC(=O)NC3=C2C(=O)C(=O)c2ccccc23)c1` (stereo not drawn) showed an Activity of 586 µmol/min.
Work on `O=C1CC(c2ccc(Cl)cc2Cl)C2=C(N1)c1ccccc1C(=O)C2=O` (stereo not drawn) yielded an Activity of 760 µmol/min.
`Cc1ccccc1C1CC(=O)NC2=C1C(=O)C(=O)c1ccccc12` (stereo not drawn) gave an Activity of 448 µmol/min.
For `O=C1CC(c2cccs2)C2=C(N1)c1ccccc1C(=O)C2=O` (stereo not drawn), the Activity was 621 µmol/min.
`COc1ccccc1C1CC(=O)NC2=C1C(=O)C(=O)c1ccccc12` (stereo not drawn) showed an Activity of 354 µmol/min.
Molecule `Cc1cccc(C2CC(=O)NC3=C2C(=O)C(=O)c2ccccc23)c1` (stereo not drawn) has an Activity of 333 µmol/min.
Work on `Cc1ccc(C2CC(=O)NC3=C2C(=O)C(=O)c2ccccc23)cc1` (stereo not drawn) yielded an Activity of 275 µmol/min.
`COc1cc(OC)cc(C2CC(=O)NC3=C2C(=O)C(=O)c2ccccc23)c1` (stereo not drawn) gave an Activity of 194 µmol/min.
Molecule `O=C1CC(c2ccc(F)cc2)C2=C(N1)c1ccccc1C(=O)C2=O` (stereo not drawn) has an Activity of 392 µmol/min.
In the case of `O=C1CC(c2ccccc2F)C2=C(N1)c1ccccc1C(=O)C2=O` (stereo not drawn), the Activity was 1360 µmol/min.
Molecule `CCCC1CC(=O)NC2=C1C(=O)C(=O)c1ccccc12` (stereo not drawn) has an Activity of 486 µmol/min.
Molecule `O=C1CC(c2cccc(C(F)(F)F)c2)C2=C(N1)c1ccccc1C(=O)C2=O` (stereo not drawn) has an Activity of 1030 µmol/min.
In the case of `O=C1CC(C2CCCC2)C2=C(N1)c1ccccc1C(=O)C2=O` (stereo not drawn), the Activity was 491 µmol/min.
`O=C1CC(c2ccc(F)cc2F)C2=C(N1)c1ccccc1C(=O)C2=O` (stereo not drawn) showed an Activity of 936 µmol/min.
Molecule `O=C1CC(c2ccccc2Cl)C2=C(N1)c1ccccc1C(=O)C2=O` (stereo not drawn) has an Activity of 467 µmol/min.
For `COc1cc(C2CC(=O)NC3=C2C(=O)C(=O)c2ccccc23)ccc1O` (stereo not drawn), the Activity was 1440 µmol/min.
`COc1ccc(OC)c(C2CC(=O)NC3=C2C(=O)C(=O)c2ccccc23)c1` (stereo not drawn) showed an Activity of 180 µmol/min.
`COc1ccc(C2CC(=O)NC3=C2C(=O)C(=O)c2ccccc23)cc1F` (stereo not drawn) gave an Activity of 192 µmol/min.
With `O=C1CC(c2ccccc2)C2=C(N1)c1ccccc1C(=O)C2=O` (stereo not drawn) the Activity was 364 µmol/min.

System: MCF7
Test: Cytotoxicity against NQO1-rich human MCF7 cells assessed as reduction in cell growth incubated for 48 hrs by MTT assay
Type: functional
Settings: not given
In the case of `CC1(C)CCC2=C(O1)c1ccccc1C(=O)C2=O` [LAPACHONE], the GI50 was 4.17 µM.
In the case of `O=C1CC(c2ccc(Cl)cc2Cl)C2=C(N1)c1ccccc1C(=O)C2=O` (stereo not drawn), the GI50 was 8.81 µM.
For `O=C1CC(c2ccccc2F)C2=C(N1)c1ccccc1C(=O)C2=O` (stereo not drawn), the GI50 was 2.3 µM.
Work on `O=C1CC(c2cccc(C(F)(F)F)c2)C2=C(N1)c1ccccc1C(=O)C2=O` (stereo not drawn) yielded a GI50 of 8.96 µM.
`COc1cc(C2CC(=O)NC3=C2C(=O)C(=O)c2ccccc23)ccc1O` (stereo not drawn) gave a GI50 of 1.89 µM.
For `O=C1CC(c2ccccc2)C2=C(N1)c1ccccc1C(=O)C2=O` (stereo not drawn), the GI50 was 15.3 µM.

System: HepG2
Test: Cytotoxicity against human HepG2 cells assessed as reduction in cell growth incubated for 48 hrs by MTT assay
Type: functional
Settings: not given
`CC1(C)CCC2=C(O1)c1ccccc1C(=O)C2=O` [LAPACHONE] showed a GI50 of 2.83 µM.
Work on `O=C1CC(c2ccc(Cl)cc2Cl)C2=C(N1)c1ccccc1C(=O)C2=O` (stereo not drawn) yielded a GI50 of 3.27 µM.
`O=C1CC(c2ccccc2F)C2=C(N1)c1ccccc1C(=O)C2=O` (stereo not drawn) gave a GI50 of 2.57 µM.
`O=C1CC(c2cccc(C(F)(F)F)c2)C2=C(N1)c1ccccc1C(=O)C2=O` (stereo not drawn) showed a GI50 of 4.24 µM.
In the case of `COc1cc(C2CC(=O)NC3=C2C(=O)C(=O)c2ccccc23)ccc1O` (stereo not drawn), the GI50 was 2.24 µM.
Work on `O=C1CC(c2ccccc2)C2=C(N1)c1ccccc1C(=O)C2=O` (stereo not drawn) yielded a GI50 of 3.09 µM.

System: A549
Test: Cytotoxicity against human A549 cells assessed as reduction in cell growth incubated for 48 hrs by MTT assay
Type: functional
Settings: not given
Work on `CC1(C)CCC2=C(O1)c1ccccc1C(=O)C2=O` [LAPACHONE] yielded a GI50 of 3.32 µM.
`O=C1CC(c2ccc(Cl)cc2Cl)C2=C(N1)c1ccccc1C(=O)C2=O` (stereo not drawn) showed a GI50 of 3.13 µM.
With `O=C1CC(c2ccccc2F)C2=C(N1)c1ccccc1C(=O)C2=O` (stereo not drawn) the GI50 was 3.89 µM.
In the case of `O=C1CC(c2cccc(C(F)(F)F)c2)C2=C(N1)c1ccccc1C(=O)C2=O` (stereo not drawn), the GI50 was 12.6 µM.
`COc1cc(C2CC(=O)NC3=C2C(=O)C(=O)c2ccccc23)ccc1O` (stereo not drawn) showed a GI50 of 4.38 µM.
`O=C1CC(c2ccccc2)C2=C(N1)c1ccccc1C(=O)C2=O` (stereo not drawn) showed a GI50 of 11.7 µM.

System: HepG2
Test: Cytotoxicity against human HepG2 cells assessed as reduction in cell growth pretreated for 1 hr with NQO1 inhibitor, dicoumarol followed by incubation with compound for 48 hrs by MTT assay
Type: functional
Settings: not given
For `CC1(C)CCC2=C(O1)c1ccccc1C(=O)C2=O` [LAPACHONE], the GI50 was 6.3 µM.

System: A549
Test: Cytotoxicity against human A549 cells assessed as reduction in cell growth pretreated for 1 hr with NQO1 inhibitor, dicoumarol followed by incubation with compound for 48 hrs by MTT assay
Type: functional
Settings: not given
With `CC1(C)CCC2=C(O1)c1ccccc1C(=O)C2=O` [LAPACHONE] the GI50 was 6 µM.

System: HepG2
Test: Cytotoxicity against human HepG2 cells assessed as reduction in cell growth pretreated for 1 hr with ROS scavenger, N-acetyl cysteine followed by incubation with compound for 48 hrs by MTT assay
Type: functional
Settings: not given
In the case of `CC1(C)CCC2=C(O1)c1ccccc1C(=O)C2=O` [LAPACHONE], the GI50 was 6.21 µM.

System: A549
Test: Cytotoxicity against human A549 cells assessed as reduction in cell growth pretreated for 1 hr with ROS scavenger, N-acetyl cysteine followed by incubation with compound for 48 hrs by MTT assay
Type: functional
Settings: not given
`CC1(C)CCC2=C(O1)c1ccccc1C(=O)C2=O` [LAPACHONE] showed a GI50 of 6.19 µM.

System: not listed separately
Test: Cytotoxicity against human L02 cells assessed as reduction in cell growth incubated for 48 hrs by MTT assay
Type: cell-based
Settings: not given
For `CC1(C)CCC2=C(O1)c1ccccc1C(=O)C2=O` [LAPACHONE], the GI50 at 48 h was 4.54 µM.

System: HepG2
Test: Induction of ROS generation in human HepG2 cells at 5 uM by DCFH-DA staining based flow cytometry analysis
Type: functional, cell-based
Settings: time 3-5 hrs, TDE = time-dependent effect
For `CC1(C)CCC2=C(O1)c1ccccc1C(=O)C2=O` [LAPACHONE], the Activity was “Tde”.

System: HepG2
Test: Antitumor activity against human HepG2 cells xenografted in athymic nude mouse assessed as inhibition of tumor growth at 20 mg/kg, iv administered once every 2 days for 19 days by caliper analysis relative to control
Type: functional
Settings: 456 h, time 19 day
Molecule `CC1(C)CCC2=C(O1)c1ccccc1C(=O)C2=O` [LAPACHONE] has an inhibition in vivo at 20 mg/kg of 67.3%.

System: not listed separately
Test: Selectivity index, ratio of GI50 for human HepG2 cells pretreated for 1 hr with NQO1 inhibitor, dicoumarol followed by incubation with compound for 48 hrs to GI50 for human HepG2 cells measured after 48 hrs by MTT assay
Type: functional
Settings: not given
With `CC1(C)CCC2=C(O1)c1ccccc1C(=O)C2=O` [LAPACHONE] the RatioGI50 was 2.

System: not listed separately
Test: Selectivity index, ratio of GI50 for human HepG2 cells pretreated for 1 hr with ROS scavenger, N-acetyl cysteine followed by incubation with compound for 48 hrs to GI50 for human HepG2 cells measured after 48 hrs by MTT assay
Type: functional
Settings: not given
`CC1(C)CCC2=C(O1)c1ccccc1C(=O)C2=O` [LAPACHONE] showed a RatioGI50 of 2.

System: not listed separately
Test: Selectivity index, ratio of GI50 for human A549 cells pretreated for 1 hr with ROS scavenger, N-acetyl cysteine followed by incubation with compound for 48 hrs to GI50 for human A549 cells measured after 48 hrs by MTT assay
Type: functional
Settings: not given
Work on `CC1(C)CCC2=C(O1)c1ccccc1C(=O)C2=O` [LAPACHONE] yielded a RatioGI50 of 2.
